Legend:
[1] = target: T1, α1a-adrenoceptor (recombinant) (Homo sapiens, UniProt P35348); assay: Radioligand binding, cloned α1a-adrenoceptor ([3H]prazosin); details: read-out: Affinity for recombinant α1a-adrenoceptor, cloned receptors (Ki)
T1 construct: expressed in transfected cells
T1 sequence (P35348 1-466): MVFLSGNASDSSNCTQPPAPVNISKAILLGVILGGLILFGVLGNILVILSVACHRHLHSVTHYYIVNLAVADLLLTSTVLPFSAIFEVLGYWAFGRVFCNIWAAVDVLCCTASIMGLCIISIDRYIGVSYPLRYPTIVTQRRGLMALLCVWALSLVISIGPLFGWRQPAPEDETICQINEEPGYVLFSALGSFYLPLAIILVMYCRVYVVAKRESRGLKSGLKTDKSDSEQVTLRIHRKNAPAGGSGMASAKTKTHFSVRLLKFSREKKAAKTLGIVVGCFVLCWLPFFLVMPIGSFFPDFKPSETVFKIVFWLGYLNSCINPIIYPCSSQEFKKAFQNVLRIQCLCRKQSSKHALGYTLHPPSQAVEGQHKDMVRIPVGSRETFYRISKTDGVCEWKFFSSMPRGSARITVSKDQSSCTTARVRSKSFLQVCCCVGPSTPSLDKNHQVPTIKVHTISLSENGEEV

[2] = target: T2, 5HT1A-serotoninergic receptor (Homo sapiens, UniProt P08908); assay: Radioligand binding, cloned 5-HT1A-serotoninergic receptor in HeLa membranes ([3H]8-OH-DPAT); set-up: expressed in transfected cells; host or cells: HeLa; details: cloned human 5-HT1A receptor in HeLa membranes, mean Ki, read-out: Affinity for 5-HT1A receptor, cloned receptors (Ki)
T2 sequence (P08908 1-422): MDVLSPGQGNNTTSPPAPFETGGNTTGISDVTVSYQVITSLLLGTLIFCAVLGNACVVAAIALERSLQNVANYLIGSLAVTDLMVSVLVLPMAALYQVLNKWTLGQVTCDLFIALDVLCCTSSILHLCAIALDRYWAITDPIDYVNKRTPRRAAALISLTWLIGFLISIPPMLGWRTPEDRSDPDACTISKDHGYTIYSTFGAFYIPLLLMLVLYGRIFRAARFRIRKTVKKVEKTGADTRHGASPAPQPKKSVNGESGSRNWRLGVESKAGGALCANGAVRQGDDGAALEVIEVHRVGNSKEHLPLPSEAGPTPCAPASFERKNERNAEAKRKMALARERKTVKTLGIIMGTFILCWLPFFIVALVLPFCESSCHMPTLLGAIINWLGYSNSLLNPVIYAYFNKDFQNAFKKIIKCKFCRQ

[3] = tested on: prostatic urethral pressure increase induced by noradrenaline; assay: Inhibition of urethral contractions induced by noradrenaline in anaesthetised dogs after i.v. administration; assay type: in vivo, dog; details: for UC ID50: active dose inhibiting by 50% the urethral contractions induced by noradrenaline: i.v. administration; for DBP/UC ratio between the active doses: i.v., DBP ED25 / UC ID50
Protocol: The experiments were performed according to the method of Imagawa J. et al., J. Pharmacol. Methods 22: 103-111, 1989, with substantial modifications, as follows: adult male beagle dogs, weighing 8-10 kg, were anaesthetised with pentobarbital sodium (30 mg/kg i.v. and 2 mg/kg/h i.v.), intubated and spontaneously ventilated with room air. In order to monitor systemic blood pressure (BP), a polyethylene (PE) catheter was introduced into the aortic arch through the left femoral artery. A collateral of the left femoral vein was cannulated for infusion of anaesthetic, and the right femoral vein was cannulated for administration of compounds. For intra-arterial (i.a.) injection of noradrenaline (NA), a PE catheter was introduced into the lower portion of the abdominal aorta via the right external iliac artery. Through such procedure, NA was selectively distributed to the lower urinary tract. A paramedian vertical suprapubic incision extending from the base of the pelvis to the mid-abdominal region was made and the bladder and prostate were exposed. The bladder was manually emptied with a syringe. Prostatic urethral pressure was monitored with a Mikro-tip catheter (5F) introduced into the bladder via the external urethral meatus, and withdrawn until the pressure transducer was positioned in the prostatic region of the urethra. A ligature was secured between the neck of the bladder and urethra to isolate the response of the latter and to avoid any interaction with the bladder. Another ligature was put around the Mikro-tip catheter at the external meatus, to secure the catheter itself. After a stabilising period following the surgical procedure (30 minutes), in which arterial and prostatic urethral pressure were continuously monitored as basal values, i.a. administration of NA was made at intervals of 20 minutes. The doses of NA chosen were such to produce an increase of at least 100% in urethral pressure. The test compounds were administered i.v. in a cumulative manner with intervals of 15-20 minutes between administrations. I.a. injections of NA were repeated 5 minutes after every dosing of test compound with intervals of about 10 minutes between stimulations. In order to compare the effects of the administered compound, dose/response curves (log dose transformation) were constructed by computing, at the peak effect, the percent decrease in diastolic blood pressure and the percent inhibition of the increase in urethral pressure induced by NA.

[4] = target: T3, α1b-adrenoceptor (recombinant) (Homo sapiens, UniProt P35368); assay: Radioligand binding, cloned α1b-adrenoceptor ([3H]prazosin); details: read-out: Affinity for recombinant α1b-adrenoceptor, cloned receptors (Ki)
T3 construct: expressed in transfected cells
T3 sequence (P35368 1-520): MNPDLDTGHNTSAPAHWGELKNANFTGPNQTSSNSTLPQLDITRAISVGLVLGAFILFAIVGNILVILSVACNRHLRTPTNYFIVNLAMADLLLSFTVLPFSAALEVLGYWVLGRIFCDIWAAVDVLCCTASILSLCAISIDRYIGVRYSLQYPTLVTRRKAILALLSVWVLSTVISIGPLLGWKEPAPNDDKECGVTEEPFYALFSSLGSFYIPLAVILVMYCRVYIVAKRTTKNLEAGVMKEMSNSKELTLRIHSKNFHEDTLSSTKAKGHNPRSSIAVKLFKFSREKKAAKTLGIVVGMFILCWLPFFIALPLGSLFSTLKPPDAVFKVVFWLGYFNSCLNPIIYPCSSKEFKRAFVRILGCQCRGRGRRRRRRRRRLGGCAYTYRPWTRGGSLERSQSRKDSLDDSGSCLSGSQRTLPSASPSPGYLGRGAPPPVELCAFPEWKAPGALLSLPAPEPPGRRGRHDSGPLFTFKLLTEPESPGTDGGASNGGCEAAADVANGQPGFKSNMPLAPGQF

SMILES	Ki [1]	Ki [2]	UC ID50: active dose inhibiting by 50% the urethral contractions induced by noradrenaline [3]	DBP/UC ratio between the active doses [3]	Ki [4]
COc1ccc(Cl)cc1N1CCN(CCCNC(=O)c2cccc3c(=O)c(C)c(C(N)=O)oc23)CC1 [Example 1, 2-Carbamoyl-8-{3-[4-(5-chloro-2-methoxyphenyl)-1-piperazinyl]-propylcarbamoyl}-3-methyl-4-oxo-4H-1-benzopyran]	2.4 nM	17.2 nM	11.8 µg/kg	234.7	2.62 nM
CCOC(=O)c1oc2c(C(=O)NCCCN3CCN(c4cc(Cl)ccc4OC)CC3)cccc2c(=O)c1C [Example 4, 2-Ethoxycarbonyl-8-{3-[4-(5-chloro-2-methoxyphenyl)-1-piperazinyl]-propylcarbamoyl}-3-methyl-4-oxo-4H-1-benzopyran]	0.21 nM	15.2 nM	2.3 µg/kg	71.0	0.08 nM

Source: patent publication US6403594B1, “Benzopyran derivatives” (Recordati, S.A. Chemical and Pharmaceutical Company, priority 1999, dated 2002)
